Source: patent publication US20240401044A1, “EXPLOITING IL33 SECRETION AS A THERAPEUTIC TARGET IN CANCER” (ROSWELL PARK CANCER INSTITUTE CORPORATION HEALTH RESEARCH, …, priority 2021, published 2024)

Tests used:
IL33 expression = experiment: Western blot of IL33 expression in PDAC cell lines treated with MEK and PI3K/AKT inhibitors; assay type: cell-based, mouse; details: cell lines derived from KPC tumor model of PDAC; inhibitor treatment for 24 hrs
Description: Results are shown as mean ±SEM. P values were calculated using Student t test. Chi-square test and spearman's correlation analysis was done for human PDAC TMA for statistical significance.
The above in silico findings were further validated by western blot analysis showing a complete loss of IL33 expression upon abolishing Kras* signaling (FIG. 3F-G, FIG. 4A-B). We further validated this finding using cell lines derived from KPC tumor model of PDAC (FIG. 1A).
Primary mouse cell lines were established in the laboratory (PJ-B6-4291, PJ-B6-4298) or gift from Dr. Ronald DePinho (AK-B6, AK14838, AK192, HY19636, HY15559) as described previously and were routinely cultured in RPMI 1640 (Invitrogen) 10% FBS (Invitrogen), 100 U/ml penicillin and 100 U/ml streptomycin. For inducible Kras derived cell lines, 1 μg/ml of doxycycline was directly added to the media. The cell lines were mycoplasma free, based on tests done monthly in the laboratory using Lonza's MycoAlert Mycoplasma Detection Kit assays with confirmatory tests by PCR-based assays.
Medium was removed and the cells were washed twice in ice-cold phosphate-buffered saline (PBS), scraped and collected as pellets after centrifugation at 1700 g for 5 min. The pelleted cells were incubated in radio immune precipitation assay (RIPA) buffer with proteinase and phosphatase inhibitors for 15 min. Lysates were then collected and centrifuged at 12000 rpm for 15 min at 4° C. Protein concentrations were measured using the DC Protein Assay Kit (Biorad, Cat. No. 5000111). SDS-PAGE and immunoblotting were performed as described previously in pre-cast bis-Tris 4-20% gradient gels (Invitrogen). The following antibodies were used: IL33 (R & D system AF3626); pAKT-S473 (CST 9271); pERK-p44/42 (CST 4370) and […] (Sigma-Aldrich, A2228).

IL33 = experiment: IHC and IF of IL33 in fungal-depleted PDAC tumors; assay type: in vivo, mouse; details: fungal-depleted tumors after amphotericin B course (FIG. 9H)
Description: To further test the role of fungi in IL33 secretion and recruitment of ILC2 and TH2 cells in the PDAC TME, we evaluated the effect of Alternaria and Malassezia administered by gavage to PDAC tumor-bearing mice (FIG. 9G). First, fungi resident in the mice were depleted by a course of amphotericin B (i.e., 5 doses of amphotericin B, 200 μg/day by oral gavage), followed by a maintenance dose of 0.5 μg/ml in the drinking water for […]. Following depletion of fungi, we administered either Malassezia globosa or Alternaria alternata (10^8 fungal spores per mouse) by oral gavage into the tumor-bearing mice. At 28 days post-fungal treatment, the tumors were harvested for analyses. […] Intratumoral fungal depletion and repopulation were confirmed by fungal FISH analysis (FIG. 9H). Further, 18S rRNA sequencing confirmed increased presence of Alternaria and Malassezia sp. in the tumor and stool of the mouse receiving fungal transplantation (FIG. 9I, FIG. 10D-F). […] Similarly, Malassezia globosa or Alternaria alternata administration augmented the infiltration of ILC2 (FIG. 9K) and TH2 (FIG. 10G) cell populations within the TME. […]
Harvested tissues were immediately fixed in 10% formalin overnight and embedded in paraffin. […] Immunofluorescence slides were imaged with an Leica confocal Microscope and quantified with ImageJ. […]

[1] = test system: ILC2 and TH2 cells in PDAC tumors; experiment: Flow cytometry of tumor infiltrating type 2 immune cells after antifungal treatment; assay type: in vivo, C57BL/6 mice; details: oral amphotericin B
Description: (§1) Followed by 3 weeks of amphotericin (0.5ug/ml) treatment in drinking water. After 3 weeks, PDAC cells were orthotopically transplanted and tumor progression studies were performed after 28-35 days. […] Red circles define the tumor boundaries. […] Followed by 3 weeks of amphotericin (0.5ug/ml) treatment in drinking water. After 3 weeks fungus (Alternaria alternata and Malassazia globose, 10^8 CFU/ml) was transplanted in mice. After 7 days of fungus transplantation, PDAC cells were orthotopically transplanted and tumor progression studies were performed after 28-35 days. […] Also, shown are the 18S rRNA sequencing in stool samples. Positive control-Alternaria is a sample of pure Alternaria culture. […] Scale bar 100 μm, unless indicated otherwise. Data are combined from three independent experiments and are presented as mean ±SEM, P values were calculated using Student t-test. ns, no significance.
For gastrointestinal fungal depletion, C57BL/6 mice were treated with 200 μg amphotericin B per day by oral gavage for five consecutive days, followed by 0.5 μg/ml amphotericin B treatment in drinking water for 21 days. Control groups were gavaged with 200 μl PBS for 5 consecutive days. After completion of antifungal treatment, species specific fungal repopulation was done with Alternaria alternata (ATCC 36376) and Malassezia globosa (MYA-4889). Fungi were administered (1×10^8 CFU/ml) by oral gavage. […]

[2] = test system: orthotopically transplanted PDAC tumors; experiment: Antifungal (fungal depletion) treatment of mice with orthotopically transplanted PDAC tumors: tumor burden and survival; assay type: in vivo, C57BL/6 mice
Description: as §1
For all experiments, C57BL/6J (Stock 000664) mice, aged 4-6 weeks were obtained from Jackson Laboratory unless otherwise mentioned. For orthotopic pancreas transplantation, mice were anaesthetized using isoflurane. A 2×2-mm portion of the left abdomen was shaved to facilitate transplantation. An incision was made in the left abdomen and the pancreas was gently exposed along with the spleen. Luciferase-expressing cells were slowly injected into the tail of the pancreas using a Hamilton syringe. Twenty microliters of cells (5×10^5) mixed with 20 μl Matrigel were injected. […]
Live in vivo imaging was performed at the Animal Imaging Facility at Roswell Park Comprehensive Cancer Center. […] Temperature and respiration were regulated using an MR-compatible small animal monitoring system (Model 1250, SAII, Stony Brook, NY.) Following scout scans, tumor burden was determined using multislice, fast spin echo scans in the axial and coronal planes. […] Tumor volumes were calculated by manual segmentation and voxel summation using commercially available, medical image processing software (Analyze 10.0, AnalyzeDirect, Overland Park, KS). […]

`O=C(NOCC1CC1)c1ccc(F)c(F)c1Nc1ccc(I)cc1Cl` [CI-1040] was tested, and the “IL33 expression (western blot)” value (IL33 expression) was “complete inhibition of IL33 expression”.
`CCn1c(-c2nonc2N)nc2c(C#CC(C)(C)O)ncc(OCC3CCCNC3)c21` (stereo not drawn) [GSK-690696] was tested, and the “IL33 expression (western blot)” value (IL33 expression) was “did not lead to a reduction in IL33 expression”.
`C[C@@H]1[C@H](O)[C@@H](C)/C=C/C=C/C=C/C=C/C=C/C=C/C=C/[C@H](O[C@@H]2O[C@H](C)[C@@H](O)[C@H](N)[C@@H]2O)C[C@@H]2O[C@](O)(C[C@@H](O)C[C@@H](O)[C@H](O)CC[C@@H](O)C[C@@H](O)CC(=O)O[C@H]1C)C[C@H](O)[C@H]2C(=O)O` [amphotericin B] was tested, and the “IL33 localisation in PDAC tumors (IHC and IF)” value (IL33) was “IL33 signal restricted predominantly to the nucleus of cancer cells”, the “tumor infiltrating ILC2” value ([1]; relative to total CD45 positive cells (FIG. 9E)) was “reduced tumor infiltrating ILC2” and the “tumor infiltrating TH2 cells” value ([1]; relative to total CD45 positive cells (FIG. 9F)) was “reduced”. The “tumor burden (wet weight of PDAC tumors)” value ([2]; fungal depletion/repopulation experiment, 5 doses 200 μg/day by oral gavage, then 0.5 μg/ml in drinking water (FIG. 9J)) was “significantly decreased tumor burden”, the tumor burden ([2]; oral amphotericin B, orthotopic PDAC tumor-bearing mice (FIG. 9B-C, 10A)) was “decreased tumor burden” and the survival ([2]; oral amphotericin B, orthotopic PDAC tumor-bearing mice (FIG. 9D)) was “increased survival”.
With `Nc1cc(C(F)(F)F)c(-c2cc(N3CCOCC3)nc(N3CCOCC3)n2)cn1` [Buparlisib] the “IL33 expression (western blot)” value (IL33 expression) was “did not lead to a reduction in IL33 expression”.
